One assay deals with RNR (RNR1:RNR2) (Homo sapiens (Human), UniProt P23921+P31350). The assay is described as follows: RNR enzyme activity, rapid-fire mass spectrometry (RFMS) assay. It is filed as biochemical. Conditions: [RNR] 50 nM, 1:1 RNR1:RNR2, [CDP] 5 μM, [ATP] 1 mM, 37° C., 45 min. The procedure: A rapid-fire mass spectrometry (RFMS) assay was used to assess RNR enzyme activity using a 384 well plate and a robotic platform.
The plate layout included two validated reference compounds (Triapine (3-AP) and Hydroxyurea (HU)): • A dose response in duplicate; top concentration: 5 μM (3-AP) and 250 μM (HU), semi-log • dilutions. • Spike wells in triplicate randomly spotted at four concentrations: • 250 μM, 100 μM, 30 μM and 2 μM for HU • 5 μM, 2 μM, 0.6 μM and 0.04 μM for 3-AP
First, the multidrop pipes were saturated for 30 minutes with enzymatic solution. Then 30 μL of Stop solution was distributed in column 24. Next, 15 μL of enzyme was distributed in column 1 to 24. Next, a pre-incubation step of 15 minutes at room temperature occurred, followed by distribution of 15 μL of substrate solution (column 1 to 24). Next, the plate was incubated for 45 minutes at 37° C. 30 μL of Stop solution was distributed to columns 1 to 23.
The final parameters for the enzyme reactions were: • Incubation: 37° C., 45 min • [CDP]: 5 μM; [ATP]: 1 mM; [NADPH]: No • [RNR]final: 50 nM with 1:1 (RNR1:RNR2) ratio • Final volume: 30 μL • Stop solution: 6% HCOOH containing 2 μM of 15
The compounds were screened at concentrations from 10 nM to 30 μM.

In assay [1] the test system is pCHK1 (S345) in Colo320 DM cells. Put plainly: CHK1 cellular activity (phospho-CHK1 AlphaLisa). It counts as cell-based, human. As to conditions: Homo sapiens, COLO 320DM, 16 h, compound overnight (approximately 16 hours). The procedure: Phospho-CHK1 cellular activity was measured as a marker of replication stress which is a consequence of RNR inhibition.
Colo320 DM cells (ATCC #CCL-220, derived from human colorectal adenocarcinoma, Dukes' type C) were seeded on a 96-well cell culture treated assay plate at a density of 50,000 cells/well in 200 μL of RPMI-1640 media supplemented with 10% Fetal Bovine Serum and incubated at 37 degrees Celsius overnight. The following day, test compound dilutions were added directly to the plated cells by a Tecan digital dispenser to a final DMSO concentration of <0.5% and incubated at 37 degrees Celsius overnight (approximately 16 hours). The following day all culture media is removed from the cells. 75 μL of 1× AlphaLisa lysis buffer is added to each well and plates are agitated on a shaker for 30 minutes at room temperature. The lysis of cells and detection of pCHK1 (S345) are performed with reagents contained within the AlphaLisa Sure Fire assay kit (Perkin Elmer #ALSU-PCHK1-A) according to the manufacturer's instructions. 10 μL of each lysate was then transferred to a white, 384-well assay plate (Perkin Elmer #6008280). 5 μL of Acceptor mix was then added to each well of lysate in the white, 384-well assay plate and incubated in the dark at room temperature for 60 minutes. 5 μL of Donor mix was then added to each well of the white, 384-well assay plate in subdued light and incubated at room temperature for 60 minutes. Plates are read on an Alpha Technology-compatible plate reader using standard AlphaLisa settings.
On the technique in general: Bead proximity is the source of the signal in Alpha formats.

Chain of RNR (RNR1:RNR2) (P23921 whole entry): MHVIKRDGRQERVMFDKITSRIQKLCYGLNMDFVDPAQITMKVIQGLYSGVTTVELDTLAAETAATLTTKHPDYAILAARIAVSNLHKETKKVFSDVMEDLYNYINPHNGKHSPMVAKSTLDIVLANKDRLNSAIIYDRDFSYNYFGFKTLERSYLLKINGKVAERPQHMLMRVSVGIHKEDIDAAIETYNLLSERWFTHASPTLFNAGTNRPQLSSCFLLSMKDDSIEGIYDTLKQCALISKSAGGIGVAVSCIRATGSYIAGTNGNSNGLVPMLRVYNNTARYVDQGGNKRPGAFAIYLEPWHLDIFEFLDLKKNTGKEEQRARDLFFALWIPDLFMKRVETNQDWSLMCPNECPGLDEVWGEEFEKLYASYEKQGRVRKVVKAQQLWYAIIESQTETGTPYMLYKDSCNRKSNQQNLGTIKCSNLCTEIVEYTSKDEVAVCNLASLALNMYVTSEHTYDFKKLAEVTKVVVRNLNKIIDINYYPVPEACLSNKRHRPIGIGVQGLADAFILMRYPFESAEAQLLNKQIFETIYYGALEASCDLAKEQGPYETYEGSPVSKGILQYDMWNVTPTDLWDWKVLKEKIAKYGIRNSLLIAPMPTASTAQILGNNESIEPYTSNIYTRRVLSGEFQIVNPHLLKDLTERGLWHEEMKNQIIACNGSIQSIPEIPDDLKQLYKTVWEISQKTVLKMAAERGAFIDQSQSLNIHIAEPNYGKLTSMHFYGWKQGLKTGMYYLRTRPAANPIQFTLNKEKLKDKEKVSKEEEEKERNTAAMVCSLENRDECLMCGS
Chain of RNR (RNR1:RNR2) (P31350 whole entry): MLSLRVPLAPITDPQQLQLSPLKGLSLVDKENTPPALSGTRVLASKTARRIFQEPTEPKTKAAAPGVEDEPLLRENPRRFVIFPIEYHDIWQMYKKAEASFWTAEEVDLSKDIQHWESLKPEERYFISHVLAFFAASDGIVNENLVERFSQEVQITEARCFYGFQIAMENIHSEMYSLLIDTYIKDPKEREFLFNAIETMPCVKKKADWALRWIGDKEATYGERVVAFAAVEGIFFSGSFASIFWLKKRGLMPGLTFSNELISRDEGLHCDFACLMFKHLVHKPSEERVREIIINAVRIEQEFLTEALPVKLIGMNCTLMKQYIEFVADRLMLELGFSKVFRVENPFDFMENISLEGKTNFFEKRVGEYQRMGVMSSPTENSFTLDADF

What is called IC50 is the concentration that inhibits the measured activity by half. A low value points to inhibition by little substance. Regarding `COc1cc(Cl)ccc1S(=O)(=O)N[C@H](c1nnnn1C)[C@H](C)c1c(F)ccc(C)c1C` [Example 34, 4-chloro-N-((1S,2R)-2-(6-fluoro-2,3-dimethylphenyl)-1-(1-methyl-1H-tetrazol-5-yl)propyl)-2-methoxybenzensulfonamide], the IC50 is 5 to 30 µM at RNR (RNR1:RNR2) and 50 to 100 µM in assay [1].

As to `COc1cc(Cl)ccc1S(=O)(=O)N[C@H](c1nnn(C)n1)[C@H](C)c1c(F)ccc(C)c1C` [Example 35, 4-chloro-N-((1S,2R)-2-(6-fluoro-2,3-dimethylphenyl)-1-(2-methyl-2H-tetrazol-5-yl)propyl)-2-methoxybenzensulfonamide], the IC50 is 5 to 30 µM against RNR (RNR1:RNR2) and 50 to 100 µM in assay [1].

Regarding `Cc1ccc(F)c([C@@H](C)[C@H](NS(=O)(=O)c2cc(Cl)c(F)cc2F)c2nn[nH]n2)c1C` [Example 36, 5-chloro-2,4-difluoro-N-((1S,2R)-2-(6-fluoro-2,3-dimethylphenyl)-1-(2H-tetrazol-5-yl)propyl)benzenesulfonamide], the values for the half-maximal inhibitory concentration (IC50) (against RNR (RNR1:RNR2); in assay [1]) were 1 to 5 µM and 50 to 100 µM, respectively.

Regarding `Cc1ccc(F)c([C@@H](C)[C@H](NS(=O)(=O)c2ccc(F)c(C#N)c2)c2nn[nH]n2)c1C` [Example 37, 3-cyano-4-fluoro-N-((1S,2R)-2-(6-fluoro-2,3-dimethylphenyl)-1-(2H-tetrazol-5-yl)propyl)benzensulfonamide], the 50% inhibitory concentration (IC50) at RNR (RNR1:RNR2) is 1 to 5 µM; in assay [1] it was 50 to 100 µM.

On to `Cc1ccc(F)c([C@@H](C)[C@H](NS(=O)(=O)c2ccc(F)c(C(N)=O)c2)c2nn[nH]n2)c1C` [Example 38, 2-fluoro-5-(N-((1S,2R)-2-(6-fluoro-2,3-dimethylphenyl)-1-(2H-tetrazol-5-yl)propyl)sulfamoyl)benzamide], for which the IC50 lay within 1 to 5 µM at RNR (RNR1:RNR2) and 50 to 100 µM in assay [1].

For `Cc1ccc(F)c([C@@H](C)[C@H](NS(=O)(=O)c2ccc(Cl)cc2Cl)c2nn[nH]n2)c1C` [Example 39, 2,4-dichloro-N-((1S,2R)-2-(6-fluoro-2,3-dimethylphenyl)-1-(2H-tetrazol-5-yl)propyl)benzenesulfonamide], the results for the IC50 (at RNR (RNR1:RNR2); in assay [1]) were 0.1 to 1 µM and 10 to 30 µM, respectively.

In the case of `Cc1ccc(F)c([C@@H](C)[C@H](NS(=O)(=O)c2cc(Cl)c(Cl)cc2F)c2nn[nH]n2)c1C` [Example 40, 4,5-dichloro-2-fluoro-N-((1S,2R)-2-(6-fluoro-2,3-dimethylphenyl)-1-(2H-tetrazol-5-yl)propyl)benzenesulfonamide], the IC50 lay within 1 to 5 µM against RNR (RNR1:RNR2) and 50 to 100 µM in assay [1].

In the case of `Cc1ccc(F)c([C@@H](C)[C@H](NS(=O)(=O)c2ccc(Cl)cc2O)c2nn[nH]n2)c1C` [Example 41, 4-chloro-N-((1S,2R)-2-(6-fluoro-2,3-dimethylphenyl)-1-(2H-tetrazol-5-yl)propyl)-2-hydroxybenzenesulfonamide], the figures for the IC50 (against RNR (RNR1:RNR2); in assay [1]) were 0.1 to 1 µM and 50 to 100 µM, respectively.

On to `Cc1cc(S(=O)(=O)N[C@H](c2nn[nH]n2)[C@H](C)c2c(F)ccc(C)c2C)c(F)cc1Cl` [Example 42], for which the concentration for half-maximal inhibition (IC50) lay within 1 to 5 µM against RNR (RNR1:RNR2) and 50 to 100 µM in assay [1].

Turning to `Cc1ccc(F)c([C@@H](C)[C@H](NS(=O)(=O)c2cn(C)nc2C)c2nn[nH]n2)c1C` [Example 43], the IC50 against RNR (RNR1:RNR2) lay in the range of 1 to 5 µM; in assay [1], 50 to 100 µM.

On to `Cc1ccc(F)c([C@@H](C)[C@H](NS(=O)(=O)c2cc(Cl)ccc2F)c2nn[nH]n2)c1C` [Example 44], for which the figures for the IC50 (at RNR (RNR1:RNR2); in assay [1]) were 1 to 5 µM and 50 to 100 µM, respectively.

Regarding `Cc1ccc(F)c([C@@H](C)[C@H](NS(=O)(=O)c2cc(Cl)ccc2Cl)c2nn[nH]n2)c1C` [Example 45], the IC50 against RNR (RNR1:RNR2) lay within 5 to 30 µM; in assay [1], 50 to 100 µM.

Turning to `Cc1ccc(F)c([C@@H](C)[C@H](NS(=O)(=O)c2ccc(Cl)c3nonc23)c2nn[nH]n2)c1C` [Example 46], the IC50 fell in the range of 0.1 to 1 µM against RNR (RNR1:RNR2) and 50 to 100 µM in assay [1].

For the molecule `Cc1ccc(F)c([C@@H](C)[C@H](NS(=O)(=O)c2cccc3[nH]c(=O)ccc23)c2nn[nH]n2)c1C` [Example 47], the IC50 at RNR (RNR1:RNR2) lay in the range of 0.1 to 1 µM; in assay [1], 50 to 100 µM.

Take `Cc1cc(S(=O)(=O)N[C@H](c2nn[nH]n2)[C@H](C)c2c(F)ccc(C)c2C)ccc1Cl` [Example 48]: the half-inhibitory concentration (IC50) against RNR (RNR1:RNR2) lay within 0.1 to 1 µM; in assay [1], 10 to 30 µM.

As for `Cc1ccc(F)c([C@@H](C)[C@H](NS(=O)(=O)c2ccc(Cl)c(F)c2)c2nn[nH]n2)c1C` [Example 49], the values for the IC50 (at RNR (RNR1:RNR2); in assay [1]) were 0.1 to 1 µM and 10 to 30 µM, respectively.

As for `Cc1ccc(F)c([C@@H](C)[C@H](NS(=O)(=O)c2ccc(Cl)cc2C(F)F)c2nn[nH]n2)c1C` [Example 50, 4-chloro-2-(difluoromethyl)-N-((1S,2R)-2-(6-fluoro-2,3-dimethylphenyl)-1-(2H-tetrazol-5-yl)propyl)benzenesulfonamide], the figures for the half-maximal inhibitory concentration (IC50) (against RNR (RNR1:RNR2); in assay [1]) were 0.1 to 1 µM and 30 to 50 µM, respectively.

With `Cc1ccc(Cl)cc1S(=O)(=O)N[C@H](c1nn[nH]n1)[C@H](C)c1c(F)ccc(C)c1C` [Example 53, 5-chloro-N-((1S,2R)-2-(6-fluoro-2,3-dimethylphenyl)-1-(2H-tetrazol-5-yl)propyl)-2-methylbenzenesulfonamide], the IC50 on RNR (RNR1:RNR2) lay in the range of 5 to 30 µM; in assay [1] it was 50 to 100 µM.

As to `[2H]C([2H])([2H])Oc1cc(Cl)ccc1S(=O)(=O)N[C@H](c1nn[nH]n1)[C@H](C)c1c(F)ccc(C)c1C` [Example 54, 4-chloro-N-((1S,2R)-2-(6-fluoro-2,3-dimethylphenyl)-1-(2H-tetrazol-5-yl)propyl)-2-(methoxy-d3)benzenesulfonamide], the figures for the IC50 (against RNR (RNR1:RNR2); in assay [1]) were not above 0.1 µM and 10 to 30 µM, respectively.

As to `Cc1ccc(F)c([C@@H](C)[C@H](NS(=O)(=O)c2ccc(Cl)c(C)c2Cl)c2nn[nH]n2)c1C` [Example 55, 2,4-dichloro-N-((1S,2R)-2-(6-fluoro-2,3-dimethylphenyl)-1-(2H-tetrazol-5-yl)propyl)-3-methylbenzenesulfonamide], the results for the IC50 (at RNR (RNR1:RNR2); in assay [1]) were not above 0.1 µM and 10 to 30 µM, respectively.

As for `Cc1ccc(F)c([C@@H](C)[C@H](NS(=O)(=O)c2c(F)cc(Cl)cc2F)c2nn[nH]n2)c1C` [Example 56, 4-chloro-2,6-difluoro-N-((1S,2R)-2-(6-fluoro-2,3-dimethylphenyl)-1-(2H-tetrazol-5-yl)propyl)benzenesulfonamide], the IC50 at RNR (RNR1:RNR2) lay in the range of 0.1 to 1 µM; in assay [1] it was 50 to 100 µM.

With `Cc1ccc(F)c([C@@H](C)[C@H](NS(=O)(=O)c2ccc(Cl)c([C@@H](O)C(=O)N(C)C)c2)c2nn[nH]n2)c1C` [Example 57, (R)-2-(2-chloro-5-(N-((1S,2R)-2-(6-fluoro-2,3-dimethylphenyl)-1-(2H-tetrazol-5-yl)propyl)sulfamoyl)phenyl)-2-hydroxy-N,N-dimethylacetamide], the IC50 was 0.1 to 1 µM on RNR (RNR1:RNR2) and 50 to 100 µM in assay [1].

As to `Cc1ccc(F)c([C@@H](C)[C@H](NS(=O)(=O)c2ccc(Cl)c([C@H](O)C(=O)N(C)C)c2)c2nn[nH]n2)c1C` [Example 58, (S)-2-(2-chloro-5-(N-((1S,2R)-2-(6-fluoro-2,3-dimethylphenyl)-1-(2H-tetrazol-5-yl)propyl)sulfamoyl)phenyl)-2-hydroxy-N,N-dimethylacetamide], the concentration for half-maximal inhibition (IC50) was in the range of 0.1 to 1 µM at RNR (RNR1:RNR2) and 50 to 100 µM in assay [1].

Take `Cc1ccc(F)c([C@@H](C)[C@H](NS(=O)(=O)c2ccc(Cl)c(C(C)(O)C(=O)N(C)C)c2)c2nn[nH]n2)c1C` (stereo partly drawn) [Example 59, 2-(2-chloro-5-(N-((1S,2R)-2-(6-fluoro-2,3-dimethylphenyl)-1-(2H-tetrazol-5-yl)propyl)sulfamoyl)phenyl)-2-hydroxy-N,N-dimethylpropanamide]: the values for the IC50 (on RNR (RNR1:RNR2); in assay [1]) were 0.1 to 1 µM and 50 to 100 µM, respectively.

For `Cc1ccc(Cl)c(S(=O)(=O)N[C@H](c2nn[nH]n2)[C@H](C)c2c(F)ccc(C)c2C)c1` [Example 60, 2-chloro-N-((1S,2R)-2-(6-fluoro-2,3-dimethylphenyl)-1-(2H-tetrazol-5-yl)propyl)-5-methylbenzenesulfonamide], the IC50 lay in the range of 1 to 5 µM on RNR (RNR1:RNR2) and 50 to 100 µM in assay [1].

The record behind these values is patent US20240158383A1, “RIBONUCLEOTIDE REDUCTASE (RNR) INHIBITORS AND USES THEREOF” (Boundless Bio, Inc., priority 2021, published 2024).
